Patent US8575188B2 (priority 2009, dated 2013)
Like-named read-outs stand apart in the source and are kept apart here.

Key:
[1] = tested on: human non small cell lung cancer cell line H460; assay: Antiproliferation (cytotoxicity) assay, 72 hrs under air, Alamar Blue; type: cell-based; details: read-out: IC50
[2] = tested on: MRP1 over expressing H69AR line; assay: Efflux pump drug resistance, antiproliferation assay, MRP1 over expressing line; type: cell-based; details: Homo sapiens, air
Method: (§1) The compounds were screened for cytotoxicity using human non small cell lung cancer cell line H460. […]
(§2) Cellular drug resistance was determined using the antiproliferation assay described above.

[3] = tested on: Messa ovarian carcinoma cell line; assay: Efflux pump drug resistance, antiproliferation assay, parent line; type: cell-based; details: Homo sapiens, MES-SA, air
Method: […] Cells were treated with test compounds at various concentrations under air for 72 hrs, and then cell viability and proliferation were assessed by Alamar Blue staining.
as §2

[4] = tested on: bone marrow progenitor cells; assay: Bone marrow progenitor cell clonogenic assay (CFU-GM), mouse; details: for IC50: read-out: Mouse CFU-GM (IC50 nM) THLD
Method: (§3) A clonogenic assay was performed using bone marrow progenitor cells derived from the blood of mice and humans.

[5] = as above; details: mouse
Method: as §3

[6] = In vivo pharmacokinetics, oral gavage; details: CD, mouse, in vivo, po; for AUC / Cmax: 50 mg/kg
Method: The data normalized to a 50 mg/kg dose are shown below (compounds were dosed at either 25 or 50 mg/kg).

[7] = tested on: bone marrow progenitor cells; assay: Bone marrow progenitor cell clonogenic assay (CFU-GM), human; details: for IC50: read-out: Human CFU-GM (IC50 nM) THLD
Method: as §3

[8] = as above; details: human
Method: as §3

[9] = tested on: BCRP, which over expressed the breast cancer resistance protein; assay: Efflux pump drug resistance, antiproliferation assay, BCRP over expressing line; details: for 3d BCRP/pcDNA: 3 days
Method: as §1, §2

[10] = tested on: pcDNA; assay: Efflux pump drug resistance, antiproliferation assay, parent line; type: cell-based; details: air
Method: as §1, §2

[11] = tested on: H69 small cell lung cancer line; assay: as above; type: cell-based; details: air
Method: as §1, §2

[12] = tested on: DX5, which over expresses the MDR 1 efflux pump; assay: Efflux pump drug resistance, antiproliferation assay, MDR 1 over expressing line; type: cell-based; details: air
Method: as §1, §2

[13] = tested on: human non small cell lung cancer H-460; assay: Xenograft model, subcutaneous, tumor growth inhibition and body weight loss; details: for TGI (%): H460, PO, QD × 5/wk, 2 weeks; for Max. BWL (%): mouse, in vivo, po
Method: (§4) The first three models were produced by subcutaneous implantation of the appropriate number of cells into the flank of the animals. When tumor size was approximately 150 mm^3, animals were randomized into groups of 10 mice each for dosing. One arm was dosed with only vehicle and the results used for the efficacy calculations. […] TGI=(1−T/C) %. T/C ratio was calculated as T/C=(Tn−Ti)/(Cn−Ci), where Tn is tumor volume in treatment group on Day n, and Ti is the initial tumor volume in the treatment group. Cn is the tumor volume of the vehicle group on the last day of measurement. Ci is the initial tumor volume in the vehicle control group. Day n is the last measurement taken when all the animals in the vehicle group were not yet euthanized. Animals were euthanized when tumor volumes grew larger than 2000 mm^3.

[14] = tested on: human prostate cancer PC-3; assay: as above; details: for TGI (%): PC3, PO, QD × 5/wk, 2 weeks, 40 mg/Kg; for Max. BWL (%): mouse, in vivo, po, 40 mg/kg
Method: as §4

[15] = tested on: human prostate cancer cell line PC-3; assay: Antiproliferation assay, 72 hrs under air, Alamar Blue; type: cell-based; details: read-out: PC3 IC50
[16] = tested on: human melanoma cell line A375; assay: as above; type: cell-based
[17] = tested on: human melanoma cell line SKMEL2; assay: as above; type: cell-based; details: read-out: SKMEL-2 IC50
[18] = tested on: human ovarian cancer cell line IGROV-1; assay: as above; type: cell-based
[19] = tested on: human colon cancer cell line HT-29; assay: as above; type: cell-based; details: read-out: HT29 IC50
[20] = tested on: human melanoma cell line SKMEL-28; assay: as above; type: cell-based
[21] = tested on: human prostate cancer cell line LNCap; assay: as above; type: cell-based
[22] = tested on: human melanoma cell line MAMLE-3M; assay: as above; type: cell-based
[23] = tested on: human prostate cancer cell line DU145; assay: as above; type: cell-based
[24] = tested on: human colon cancer HT-29; assay: Xenograft model, subcutaneous, tumor growth inhibition and body weight loss; details: for TGI (%): HT29, PO, QD × 5/wk, 2 weeks; for Max. BWL (%): mouse, in vivo, po
Method: as §4

[25] = Homo sapiens, NCI-H460, H460, inhibition of proliferation, 72 hrs under air
[26] = 72 h, 3 days, read-out: Air 3d H69ar (MRP1) prol. IC50
[27] = 72 h, 3 days, read-out: Air 3d MESSA prol. IC50
[28] = 72 h, read-out: Air 3d BCRP prol. IC50 nM, air, 3 days
[29] = ratio of IC50s, BCRP over expressing versus parent line
[30] = 72 h, 3 days, read-out: Air 3d pcDNA prol. IC50
[31] = 72 h, 3 days, read-out: Air 3d H69 prol. IC50
[32] = MDR1, 72 h, 3 days, read-out: Air 3d DX5 prol. IC50
[33] = 120 h, 5 days, read-out: Air 5d H69ar (MRP1) prol. IC50
[34] = 120 h, 5 days, read-out: Air 5d MESSA prol. IC50
[35] = 120 h, 5 days, read-out: Air 5d H69 prol. IC50
[36] = MDR1, 120 h, 5 days, read-out: Air 5d DX5 prol. IC50

Row | Compound | IC50 [1, 25] [nM] | IC50 [2, 26] [nM] | IC50 [3, 27] [nM] | IC50 ([4]; Mus musculus, CFU-GM) [nM] | IC90 [5] [nM] | half-life [6] [min] | AUC [6] [ng·h/mL] | Cmax [6] [ng/mL] | IC50 ([7]; Homo sapiens, CFU-GM) [nM] | IC90 [8] [nM] | IC50 [9, 28] [nM] | 3d BCRP/pcDNA [9, 29] | IC50 [10, 30] [nM] | IC50 [11, 31] [nM] | IC50 [12, 32] [nM] | also measured
1 | CCc1c2c(nc3ccccc13)-c1c(NC=O)c3c(c(=O)n1C2)COC(=O)[C@]3(O)CC [TH1408] | 66 | 285 | 81 | 700 | 5000 | 48.3 | 8430 | 6070 | 90 | 650 | 7.3 | 0.7684 | 9.5 | 242 | 40 | –
2 | CCCc1c2c(nc3ccccc13)-c1c(N)c3c(c(=O)n1C2)COC(=O)[C@]3(O)CC [TH1651] | 6.2 | – | – | – | – | – | – | – | – | – | – | – | – | – | – | TGI (%) ([13]; 40 mg/Kg): 80%; Max. BWL (%) ([13]; 40 mg/kg): 5.5%; TGI (%) [14]: 80%; Max. BWL (%) [14]: 4.8%
3 | CC[C@@]1(O)C(=O)OCc2c1c(N)c1n(c2=O)Cc2cc3c(N)cccc3nc2-1 [TH1386] | 71 | 195 | 52 | 680 | 3500 | 25.6 | 3100 | 5860 | 30 | 210 | 26.6 | 4.75 | 5.6 | 141 | 28 | –
4 | CCc1c2c(nc3ccc(O)cc13)-c1cc3c(c(=O)n1C2)COC(=O)[C@]3(O)CC [SN-38, reference compound] | – | – | – | – | – | – | – | – | – | – | – | – | – | – | – | IC50 [15]: 4 nM; IC50 [1]: 54 nM; IC50 [16]: 4 nM; IC50 [17]: 100 nM; IC50 [18]: 30 nM; IC50 [19]: 224 nM; IC50 [4]: 110 nM; IC50 [20]: 10000 nM; IC50 [21]: 9 nM; IC50 [7]: 1.3 nM; ratio BCRP over expressing line versus the parent cell line ([9]; not told): > 220; IC50 [22]: 200 nM; IC50 [23]: 4 nM
5 | CC[C@@]1(O)C(=O)OCc2c1c(NC=O)c1n(c2=O)Cc2cc3ccccc3nc2-1 [TH1589] | 59 | – | – | 920 | 6200 | – | – | – | 110 | 680 | – | – | – | – | – | TGI (%) ([13]; 30 mg/Kg): 76%; Max. BWL (%) ([13]; 30 mg/kg): 10.4%; TGI (%) [14]: 80%; Max. BWL (%) [14]: 0.1%
6 | CC[C@@]1(O)C(=O)OCc2c1c([N+](=O)[O-])c1n(c2=O)Cc2c-1nc1ccccc1c2C [TH1446] | 850 | – | – | – | – | 35.4 | 4280 | 5100 | – | – | 2740 | 4.777 | 574 | – | – | IC50 [2, 33]: 8510 nM; TGI (%) ([24]; 40 mg/Kg): 29.5%; Max. BWL (%) ([24]; 40 mg/kg): 1.1%; IC50 [3, 34]: 4450 nM; IC50 [11, 35]: 2740 nM; IC50 [12, 36]: 4960 nM
7 | CC[C@@]1(O)C(=O)OCc2c1cc1n(c2=O)Cc2cc3c(N)cccc3nc2-1 [9-amino camptothecin, reference compound] | – | – | – | – | – | – | – | – | – | – | – | – | – | – | – | IC50 ([4]; mouse bone marrow progenitor cells, clonogenic assay): 90 nM; IC90 ([4]; read-out: Mouse CFU-GM (IC90 nM) THLD, IC90, mouse bone marrow progenitor cells, clonogenic assay): 700 nM; IC50 ([7]; human bone marrow progenitor cells, clonogenic assay): 1.2 nM; IC90 ([7]; read-out: Human CFU-GM (IC90 nM) THLD, IC90, human bone marrow progenitor cells, clonogenic assay): 8 nM
8 | CC[C@@]1(O)C(=O)OCc2c1c([N+](=O)[O-])c1n(c2=O)Cc2cc3ccccc3nc2-1 [TH1317] | > 1000 | – | – | – | – | – | – | – | – | – | – | – | – | – | – | IC50 [2, 33]: 1320 nM; IC50 [3, 34]: > 500 nM; IC50 ([9]; 120 h, read-out: Air 5d BCRP prol. IC50 nM, air, 5 days): 82 nM; 5d BCRP/pcDNA ([9]; ratio of IC50s, BCRP over expressing versus parent line, 5 days): 1.4386; IC50 ([10]; 120 h, 5 days, read-out: Air 5d pcDNA prol. IC50): 57 nM; IC50 [11, 35]: 933 nM; IC50 [12, 36]: > 500 nM
9 | CC[C@@]1(O)C(=O)OCc2c1c([N+](=O)[O-])c1n(c2=O)Cc2c-1nc1ccccc1c2CO [TH1333] | > 1000 | – | 15000 | – | – | – | – | – | – | – | 7800 | 2 | 3900 | – | 34000 | –
10 | CC[C@@]1(O)C(=O)OCc2c1c(N)c1n(c2=O)Cc2c-1nc1ccccc1c2/C=N/OC(C)(C)C [TH1499] | 19 | 463 | 9 | – | – | – | – | – | – | – | 3.4 | 1.0625 | 3.2 | 217 | 5 | TGI (%) ([24]; 25 mg/Kg): 4.7%; Max. BWL (%) ([24]; 25 mg/kg): 1.8%
